# Entries after “also recorded” stand apart in the source; their conditions may differ.
# Columns and labels:
# Assay type in all cases: physicochemical
# [1] = Stability, droplet size (DLS) and appearance of the SEDD emulsion after 1:9 dilution in water
# Protocol: The docusate:SEDD concentrate was diluted in water at a 1:9 ratio, resulting in an emulsion at a concentration of 2.3 mg/mL. […] The emulsion was stable at native pH 4 for more than 2 weeks at room temperature, with no significant change in particle size analysis by dynamic light scattering (DLS).
# The tosylate:SEDD concentrate was diluted in water at a 1:9 ratio, resulting in an emulsion at a concentration of 2.3 mg/mL.
# [2] = Solubility in SEDDs (lipid) vehicle, saturated solution
# Protocol: A saturated solution of the docusate salt in the SEDDs vehicle and a saturated solution of the tosylate salt in the SEDDs vehicle were prepared. The SEDDs vehicle was 15 wt % Capmul® MCM C10, 50 wt % Polysorbate 80, and 35 wt % Miglyol 812.
# [3] = Microcentrifuge dissolution in simulated gastric and intestinal media (GB/IB transfer test); settings: for dissolution in simulated gastric media: 0.01N HCl, pH 2.0, 1000 μg/mL; for dissolution in simulated intestinal media (IB): 0.5 wt % SIF powder in PBS, pH 6.5, 500 μg/mL
# Protocol: Microcentrifuge dissolution of salts in simulated gastric and intestinal media
# Dissolution of tosylate and docusate salts in simulated GB/IB transfer dissolution test was measured and compared to free base. The simulated gastric media was 0.01N HCl, pH 2.0 (concentration 1000 μg/mL), and the simulated intestinal media was 0.5 wt % SIF powder in PBS, pH 6.5 (500 μg/mL).
# Once the pH is raised to intestinal pH, the drug converts back to a free base that precipitates.
# [4] = Solubility in organic solvents, potency measurement by HPLC
# Protocol: In a glass vial, N-(4-{4-amino-7-[1-(2-hydroxyethyl)-1H-pyrazol-4-yl]thieno[3,2-c]pyridin-3-yl}phenyl)-N′-(3-fluorophenyl)urea free base (501 mg, 1.02 mmol) was slurried in 20 ml of THF using a magnetic stir bar. The free base was converted to the HCl salt in-situ by addition of 5.0 ml of aqueous 0.207 N HCl. Docusate sodium (465 mg, 1.05 mmol) was added and the mixture was stirred until all solids dissolved. Solvent was removed by rotoevaporation. Acetone, 15 ml, was added to the flask with mixing until most of the solid has dissolved, resulting in a suspension of NaCl particles. The sample was then filtered through a 0.45 µm syringe filter (to remove the NaCl particles) followed by rotoevaporation to remove acetone. The sample was placed on a vacuum line to dry for 2 hours. The above step was repeated with 15 ml acetone and filtration through a 0.22 µm filter. After removing the acetone by rotoevaporation, the sample was dried under vacuum overnight. The sample appears to be amorphous to the naked eye. […] Solubilities were determined by potency measurements using high-performance liquid chromatography (HPLC).
# [5] = Solubility in water; settings: pH 7.4
# [6] = 15 wt % Capmul MCM C10, 50 wt % Polysorbate 80, 35 wt % Miglyol 812
smiles,measurement,setting,value
"CCCCC(CC)COC(=O)CC(C(=O)OCC(CC)CCCC)S(=O)(=O)O.Nc1ncc(-c2cnn(CCO)c2)c2scc(-c3ccc(NC(=O)Nc4cccc(F)c4)cc3)c12 [docusate salt, N-(4-{4-amino-7-[1-(2-hydroxyethyl)-1H-pyrazol-4-yl]thieno[3,2-c]pyridin-3-yl}phenyl)-N′-(3-fluorophenyl)urea docusate salt]",stability in emulsions (in words),[1],remain stable in emulsions over a period of several days
same,solubility in the SEDD vehicle,[2]; [6],23 mg/mL
same,solubility in lipid vehicles (in words),[2]; lipid vehicles,high solubility in lipid vehicles
same,dissolution in simulated gastric media,[3],does not dissolve in acidic pH
same,dissolution in simulated intestinal media (IB),[3],significantly higher solubility profile during the first 90 minutes in IB than either free base or the tosylate salt; also recorded: appreciable solubility in IB solution
same,solubility in tetrahydrofuran (THF),[4]; THF,greater than 45 mg/ml
same,solubility in acetone,[4]; acetone,> 47 mg/mL
same,solubility in dichloromethane,[4]; dichloromethane,> 75 mg/mL
same,solubility in ethanol,[4]; ethanol,> 51 mg/mL
"Nc1ncc(-c2cnn(CCO)c2)c2scc(-c3ccc(NC(=O)Nc4cccc(F)c4)cc3)c12 [free base, N-(4-{4-amino-7-[1-(2-hydroxyethyl)-1H-pyrazol-4-yl]thieno[3,2-c]pyridin-3-yl}phenyl)-N′-(3-fluorophenyl)urea free base]",solubility in the SEDD vehicle,[2]; [6],2.7 mg/mL
same,dissolution in simulated gastric media,[3],significant solubility at the lower pH
same,dissolution in simulated intestinal media (IB),[3],precipitates
same,solubility in water,[5],less than 30 ng/ml
"Cc1ccc(S(=O)(=O)O)cc1.Nc1ncc(-c2cnn(CCO)c2)c2scc(-c3ccc(NC(=O)Nc4cccc(F)c4)cc3)c12 [tosylate salt, N-(4-{4-amino-7-[1-(2-hydroxyethyl)-1H-pyrazol-4-yl]thieno[3,2-c]pyridin-3-yl}phenyl)-N′-(3-fluorophenyl)urea tosylate salt]",solubility,"[2]; SEDDs vehicle, oil or lipid, thermodynamic from solid, 15 wt % Capmul MCM C10, 50 wt % Polysorbate 80, 35 wt % Miglyol 812, read-out: solubility in the SEDD vehicle",22 mg/mL
same,dissolution in simulated gastric media,[3],significant solubility at the lower pH
same,dissolution in simulated intestinal media (IB),[3],precipitates
same,solubility,[4]; organic solvent or mixture,> 25 mg/mL

# Reference: patent US20170197980A1, “N-(4-PHENYL)-N'-(3-FLUOROPHENYL)UREA DOCUSATE” (AbbVie Inc., priority 2014, published 2017)
